Laboratory results: patent US8247211B2, “Glycopeptide antibiotics” (American Cyanamid Company, priority 2001, dated 2012)
≈ marks a conversion by molar mass, not a printed value.

What was measured:
[1] = test system: Enterococcus sp.; experiment: In vitro antibacterial evaluation: minimum inhibitory concentration (MIC), broth dilution method; assay type: cell-based
How it was run: (§1)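 Following NCCLS approved standard M7-A2, compounds are serially diluted from 64 to 0.06 μg/mL in Muller-Hinton II […] and inoculated at 5×10^5 CFU/mL; the MIC is the minimum concentration at which growth is inhibited.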

[2] = test system: Escherichia coli; experiment: as above; assay type: cell-based
How it was run: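 MIC read as lowest drug level preventing visible growth. Organisms at 5×10^5 CFU/mL were exposed to a 64-0.06 μg/mL dilution series in Muller-Hinton II […] following NCCLS broth dilution standard M7-A2.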

[3] = test system: Staphylococcus sp.; experiment: as above; assay type: cell-based; conditions: broth dilution, 18 hours at 35° C.
How it was run: as §1

[4] = test system: Streptococcus sp.; experiment: as above; assay type: cell-based
How it was run: as §1

[5] = test system: Staphylococcus aureus-SMITH (GC 4543); experiment: Acute lethal infection in mice (ED50); assay type: in vivo; conditions: female CD-1 mice, intraperitoneal challenge, intravenous dose 30 min. after infection, 7 day survival ratios
How it was run: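 Lethal systemic infection model: female CD-1 mice, 20 ± 1-2 g, intraperitoneal challenge. Single intravenous treatment 30 min after infection; 7-day survival, pooled from 3 tests, gives ED50.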

CC(c1ccccc1)C1NC(=O)CNC(=O)C(CO)NC(=O)C(C(O)C2CNC(=N)N2C2OC(CO)C(O)C(O)C2O)NC(=O)C(C(O)C2CNC(=N)N2)NC(=O)C(Cc2ccc(OC3OC(CO)C(OC4OC5COC(c6cccc(-c7ccccc7)c6)OC5C(O)C4O)C(O)C3O)cc2)NC1=O (stereo not drawn) [Example 154, Cyclo[glycyl-β-methylphenylalanyl-O-[4-O-[4,6-O-(3-phenylbenzylidene)hexopyranosyl)-hexopyranosyl]tyrosyl-3-(2-iminoimidazolidin-4-yl)seryl-3-(3-hexopyranosyl-2-iminoimidazolidin-4-yl)serylseryl]]
MIC Enterococcus avium (GC 4558) ([1]; Enterococcus avium (GC 4558), broth dilution, 18 hours at 35° C.): 1 µg/mL (≈ 0.685 µM) | MIC Enterococcus faecalis (ATCC 29212) ([1]; Enterococcus faecalis (ATCC 29212), broth dilution, 18 hours at 35° C.): 2 µg/mL (≈ 1.37 µM) | MIC Enterococcus faecalis (GC 4552) ([1]; Enterococcus faecalis (GC 4552), broth dilution, 18 hours at 35° C.): 2 µg/mL (≈ 1.37 µM) | MIC Enterococcus faecalis (GC 4553) ([1]; Enterococcus faecalis (GC 4553), broth dilution, 18 hours at 35° C.): 2 µg/mL (≈ 1.37 µM) | MIC Enterococcus faecalis (GC 4554) ([1]; Enterococcus faecalis (GC 4554), broth dilution, 18 hours at 35° C.): 2 µg/mL (≈ 1.37 µM) | MIC Enterococcus faecalis (GC 6189) ([1]; Enterococcus faecalis (GC 6189), broth dilution, 18 hours at 35° C.): 2 µg/mL (≈ 1.37 µM) | MIC Enterococcus faecium (GC 2243) ([1]; Enterococcus faecium (GC 2243), broth dilution, 18 hours at 35° C.): 2 µg/mL (≈ 1.37 µM) | MIC Enterococcus faecium (GC 4556) ([1]; Enterococcus faecium (GC 4556), broth dilution, 18 hours at 35° C.): 2 µg/mL (≈ 1.37 µM) | MIC Enterococcus faecium (GC 4557) ([1]; Enterococcus faecium (GC 4557), broth dilution, 18 hours at 35° C.): 2 µg/mL (≈ 1.37 µM) | MIC Enterococcus faecalis (ATCC 29212) ([1]; strain ATCC 29212): 2 µg/mL (≈ 1.37 µM) | MIC Enterococcus faecalis (GC 2242) ([1]; strain GC 2242): 2 µg/mL (≈ 1.37 µM) | MIC Enterococcus faecium (GC 2243) ([1]; strain GC 2243): 2 µg/mL (≈ 1.37 µM) | MIC Enterococcus faecalis (GC 2691) ([1]; strain GC 2691): 2 µg/mL (≈ 1.37 µM) | MIC Enterococcus faecalis (GC 3059) ([1]; strain GC 3059): 2 µg/mL (≈ 1.37 µM) | MIC Enterococcus faecalis (GC 4552) ([1]; strain GC 4552): 2 µg/mL (≈ 1.37 µM) | MIC Enterococcus faecalis (GC 4553) ([1]; strain GC 4553): 2 µg/mL (≈ 1.37 µM) | MIC Enterococcus faecalis (GC 4554) ([1]; strain GC 4554): 2 µg/mL (≈ 1.37 µM) | MIC Enterococcus faecium (GC 4556) ([1]; strain GC 4556): 2 µg/mL (≈ 1.37 µM) | MIC Enterococcus faecium (GC 4557) ([1]; strain GC 4557): 2 µg/mL (≈ 1.37 µM) | MIC Enterococcus avium (GC 4558) ([1]; strain GC 4558): 1 µg/mL (≈ 0.685 µM) | MIC Enterococcus faecalis (GC 6189) ([1]; strain GC 6189): 2 µg/mL (≈ 1.37 µM) | MIC Escherichia coli (ATCC 25922) ([2]; strain ATCC 25922): 32 µg/mL (≈ 21.9 µM) | MIC Escherichia coli (GC 4559) ([2]; strain GC 4559): 32 µg/mL (≈ 21.9 µM) | MIC Escherichi coli (GC 4560) ([2]; strain GC 4560): 2 µg/mL (≈ 1.37 µM) | MIC Coagulase Negative Staphylococcus (GC 4547) ([3]; 5×10^5 CFU/mL): 2 µg/mL (≈ 1.37 µM) | MIC Coagulase Negative Staphylococcus (GC 4548) ([3]; 5×10^5 CFU/mL): 0.5 µg/mL (≈ 0.343 µM) | MIC Coagulase Negative Staphylococcus (GC 4549) ([3]; 5×10^5 CFU/mL): 0.25 µg/mL (≈ 0.171 µM) | MIC Coagulase Negative Staphylococcus (GC 4551) ([3]; 5×10^5 CFU/mL): 2 µg/mL (≈ 1.37 µM) | MIC Coagulase Negative Staphylococcus (GC 6257) ([3]; 5×10^5 CFU/mL): 1 µg/mL (≈ 0.685 µM) | MIC Staphylococcus aureus (ATCC 29213) ([3]; 5×10^5 CFU/mL): 1 µg/mL (≈ 0.685 µM) | MIC Staphylococcus aureus (GC 1131) ([3]; 5×10^5 CFU/mL): 1 µg/mL (≈ 0.685 µM) | MIC Staphylococcus aureus (GC 3051) ([3]; 5×10^5 CFU/mL): 1 µg/mL (≈ 0.685 µM) | MIC Staphylococcus aureus (GC 3053) ([3]; 5×10^5 CFU/mL): 2 µg/mL (≈ 1.37 µM) | MIC Staphylococcus aureus (GC 4541) ([3]; 5×10^5 CFU/mL): 1 µg/mL (≈ 0.685 µM) | MIC Staphylococcus aureus (GC 4542) ([3]; 5×10^5 CFU/mL): 1 µg/mL (≈ 0.685 µM) | MIC Staphylococcus aureus (GC 4544) ([3]; 5×10^5 CFU/mL): 2 µg/mL (≈ 1.37 µM) | MIC Staphylococcus aureus (GC 4545) ([3]; 5×10^5 CFU/mL): 1 µg/mL (≈ 0.685 µM) | MIC Staphylococcus aureus-SMITH (GC 4543) ([3]; 5×10^5 CFU/mL): 1 µg/mL (≈ 0.685 µM) | MIC Staphylococcus haemolyticus (GC 4546) ([3]; 5×10^5 CFU/mL): 1 µg/mL (≈ 0.685 µM) | MIC Staphylococcus aureus (ATCC 29213) ([3]; strain ATCC 29213): 1 µg/mL (≈ 0.685 µM) | MIC Staphylococcus aureus (GC 1131) ([3]; strain GC 1131): 1 µg/mL (≈ 0.685 µM) | MIC Staphylococcus aureus (GC 3051) ([3]; strain GC 3051): 1 µg/mL (≈ 0.685 µM) | MIC Staphylococcus aureus (GC 3053) ([3]; strain GC 3053): 2 µg/mL (≈ 1.37 µM) | MIC Staphylococcus aureus (GC 4541) ([3]; strain GC 4541): 1 µg/mL (≈ 0.685 µM) | MIC Staphylococcus aureus (GC 4542) ([3]; strain GC 4542): 1 µg/mL (≈ 0.685 µM) | MIC Staphylococcus aureus-SMITH (GC 4543) ([3]; strain GC 4543): 1 µg/mL (≈ 0.685 µM) | MIC Staphylococcus aureus (GC 4544) ([3]; strain GC 4544): 2 µg/mL (≈ 1.37 µM) | MIC Staphylococcus aureus (GC 4545) ([3]; strain GC 4545): 1 µg/mL (≈ 0.685 µM) | MIC Staphylococcus haemolyticus (GC 4546) ([3]; strain GC 4546): 1 µg/mL (≈ 0.685 µM) | MIC Coagulase Negative Staphylococcus (GC 4547) ([3]; strain GC 4547): 2 µg/mL (≈ 1.37 µM) | MIC Coagulase Negative Staphylococcus (GC 4548) ([3]; strain GC 4548): 0.5 µg/mL (≈ 0.343 µM) | MIC Coagulase Negative Staphylococcus (GC 4549) ([3]; strain GC 4549): 0.25 µg/mL (≈ 0.171 µM) | MIC Coagulase Negative Staphylococcus (GC 4551) ([3]; strain GC 4551): 2 µg/mL (≈ 1.37 µM) | MIC Coagulase Negative Staphylococcus (GC 6257) ([3]; strain GC 6257): 1 µg/mL (≈ 0.685 µM) | MIC Streptococcus pneumoniae (ATCC 6301) ([4]; strain ATCC 6301): <0.06 µg/mL | MIC Streptococcus pneumoniae (GC 1894) ([4]; strain GC 1894): <0.06 µg/mL | MIC Streptococcus pyogenes (GC 4563) ([4]; strain GC 4563): <0.06 µg/mL | MIC Streptococcus agalactiae (GC 4564) ([4]; strain GC 4564): <0.06 µg/mL | MIC Streptococcus pneumoniae (GC 4565) ([4]; strain GC 4565): <0.06 µg/mL | median effective dose (ED50), Staphylococcus aureus-SMITH (GC 4543) [5]: 0.1 mg/kg
